Source: US7759373B2, “Large conductance calcium-activated K channel opener” (Mitsubishi Tanabe Pharma Corporation, priority 2001, dated 2010)
Where a name gives a salt, the structure may show the parent alone.

Tests used:
[1] = tested on: isolated rabbit urinary bladder; assay: Relaxation effect on potassium-induced contraction of isolated rabbit urinary bladder; assay type: cell-based; details: Oryctolagus cuniculus; 50% relaxation concentration; high-K+ (30 mM) pre-contracted rabbit bladder strips; relaxation as percentage of the maximum produced by 0.1 mM papaverine; read-out: EC50 value range
Method in brief: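 Mucosa-free longitudinal bladder strips from male NZW rabbits, held at 37 °C in Krebs solution gassed with 95% O2/5% CO2, were precontracted with 30 mM K+. Compounds were added cumulatively (10^−8–10^−4 M), with isometric relaxation expressed relative to 0.1 mM papaverine maximum. EC50 was derived and reported as rank ranges.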

[2] = tested on: rhythmic bladder contractions induced by substance P; assay: Inhibitory effect on the rhythmic bladder contractions induced by substance P in anesthetized rats; assay type: in vivo, rat; details: time during which frequency of rhythmic contraction was completely inhibited, 0.25 mg/kg of the compound, substance P infusion
Method in brief: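 Value is duration (min) of complete inhibition of bladder contractions, ranked A/B/C at 20 and 10 min cut-offs. Intravenous dosing (0.5% Tween 80 saline) in female SD rats under urethane, bladder saline-filled and contractions maintained by substance P infusion, 0.33 μg/kg/min.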

SMILES | melting point | EC50 [1] | 100% inhibition time range [2]
OCCc1nc(-c2ccc(F)cc2)oc1-c1ccsc1 [Preparation Example 619] | 110 to 111 °C |  | 
CCOC(=O)Cc1nc(-c2ccc3ncccc3c2)oc1-c1ccsc1 [Preparation Example 411] | 130 to 133 °C |  | 
CCc1nc(-c2ccc(F)cc2)[nH]c1Br (as salt: hydrochloride) [Preparation example 77, 5-bromo-4-ethyl-2-(4-fluorophenyl)-imidazole] | 219 to 221 °C (dec.) |  | 
O=CCNc1[nH]c(-c2ccc(F)cc2)nc1-c1ccccc1 [Preparation example 106, 5-formylmethylamino-2-(4-fluorophenyl)-4-phenyl-imidazole] | 256 to 258 °C |  | 
CCOC(=O)Cc1nc(-c2ccc(F)cc2)oc1-c1ccccc1F [Preparation Example 161] | 88 to 89 °C |  | 
CCCc1nc(-c2cc3ccccc3o2)[nH]c1-c1ccccc1 (as salt: HCl) [Preparation example 38] | 185 to 188 °C |  | 
CCCc1nc(-c2ccccc2[N+](=O)[O-])[nH]c1-c1ccccc1 (as salt: HCl) [Preparation example 39] | 233 to 236 °C |  | 
CCOC(=O)Cc1nc(-c2ccc(SC)cc2)oc1-c1ccsc1 [Preparation Example 409] | 77 to 78 °C |  | 
COc1ccccc1-c1c[nH]c(-c2ccc(F)cc2)n1 (as salt: hydrochloride) [Preparation example 66, 2-(4-fluorophenyl)-4-(2-methoxyphenyl)imidazole] | 245 to 248 °C |  | 
CCOC(=O)Cc1nc(-c2cccc(C)c2)oc1-c1cccs1 [Preparation Example 427] | 80 to 81 °C |  | 
CCCc1nc(-c2ccc([N+](=O)[O-])cc2)[nH]c1-c1cccs1 (as salt: HCl) [Preparation example 9] | 278 to 281 °C |  | 
CCCc1nc(-c2ccc(F)cc2)[nH]c1-c1ccccc1C(N)=O (as salt: HCl) [Preparation example 101] | 186 to 189 °C |  | 
OCc1nc(-c2ccc(F)cc2)[nH]c1-c1ccccc1 [Preparation example 117] | 240 to 243 °C |  | 
O=C(O)Cc1nc(-c2ccc(F)cc2)oc1-c1ccccc1 (as salt: Na) [Preparation Example 153] | > 300 °C |  | 
O=CCCNc1[nH]c(-c2ccc(F)cc2)nc1-c1ccccc1 [Preparation example 111, 5-formylethylamino-2-(4-fluorophenyl)-4-phenylimidazole] | 201 to 202 °C |  | 
CCOC(=O)Cc1nc(-c2cc3ccccc3s2)oc1-c1ccsc1 [Preparation Example 408] | 155 to 156.5 °C |  | 
CCOC(=O)Cc1nc(-c2ccc(F)cc2)oc1-c1cc(C)cs1 [Preparation Example 163] | 138 to 139 °C |  | 
Fc1ccc(-c2nc(C3CCCCC3)c(-c3ccsc3)[nH]2)cc1 [Preparation example 45] | 171 to 173 °C |  | 
CS(=O)(=O)NCCc1nc(-c2ccc(F)cc2)oc1-c1ccsc1.[Na] [Preparation Example 378, 2-(4-fluoro-phenyl)-4-methanesulfonylaminoethyl-5-(3-thienyl)oxazole sodium salt] |  | 1000 to 3000 nM | C (A≧20>B≧10>C (minute))

SMILES | melting point | EC50 [1] | 100% inhibition time range [2]
CSc1ccc(-c2nc(-c3ccc(Cl)s3)c(CC(=O)O)s2)cc1 [Preparation Example 590] |  | ≤ 500 nM | B (A≧20>B≧10>C (minute))
O=C(O)Cc1nc(-c2cnc3occc3c2)oc1-c1ccc(Cl)s1 [Preparation Example 444] |  | 1000 to 3000 nM | B (A≧20>B≧10>C (minute))
Cc1nc2cc(-c3nc(CC(=O)O)c(-c4ccc(Cl)s4)o3)ccc2s1 [Preparation Example 459] |  | 1000 to 3000 nM | C (A≧20>B≧10>C (minute))
CN(C)c1ncc(-c2nc(CC(=O)O)c(-c3ccc(Cl)s3)o2)cn1 [Preparation Example 362] |  | 1000 to 3000 nM | A (A≧20>B≧10>C (minute))
Cc1csc(-c2nc(CC(=O)O)c(-c3ccc(Cl)s3)o2)c1 [Preparation Example 478] |  | ≤ 500 nM | B (A≧20>B≧10>C (minute))
Cn1ccc2cc(-c3nc(CC(=O)O)c(-c4ccc(Cl)s4)o3)ccc21 [Preparation Example 469] |  | 1000 to 3000 nM | B (A≧20>B≧10>C (minute))
O=C(O)Cc1nc(-c2ccc3c(c2)CCO3)oc1-c1ccc(Cl)s1 [Preparation Example 282] |  | 500 to 1000 nM | B (A≧20>B≧10>C (minute))
O=C(O)Cc1nc(-c2ccc(F)cc2)oc1-c1ccc(Cl)c(Cl)c1 [Preparation Example 240] |  | 500 to 1000 nM | C (A≧20>B≧10>C (minute))
CC(C)c1ccc(-c2oc(-c3ccc(F)cc3)nc2CC(=O)O)cc1 [Preparation Example 248] |  | 1000 to 3000 nM | B (A≧20>B≧10>C (minute))
O=C(O)Cc1nc(-c2cc3ccccc3s2)oc1-c1ccc(Cl)s1 [Preparation Example 271] |  | 500 to 1000 nM | C (A≧20>B≧10>C (minute))
O=C(O)Cc1nc(-c2ccc3occc3c2)oc1-c1cc(Cl)cs1 [Preparation Example 288] |  | ≤ 500 nM | C (A≧20>B≧10>C (minute))
CN(C)c1ccc(-c2nc(CC(=O)O)c(-c3ccc(Cl)s3)o2)cc1 [Preparation Example 441] |  | 1000 to 3000 nM | B (A≧20>B≧10>C (minute))
O=C(O)Cc1nc(-c2ccc3occc3c2)oc1-c1ccc(Cl)s1 [Preparation Example 272] |  | ≤ 500 nM | B (A≧20>B≧10>C (minute))
COc1ccc(-c2nc(-c3ccc(Cl)cc3)c(CC(=O)O)o2)cc1 [Preparation Example 517] |  | ≤ 500 nM | C (A≧20>B≧10>C (minute))
CN(C)c1ncc(-c2nc(CC(=O)O)c(-c3ccc(Cl)c(S)c3)o2)cn1 [Preparation Example 364] |  | 1000 to 3000 nM | B (A≧20>B≧10>C (minute))
CCOc1ccc(-c2nc(-c3ccc(Cl)s3)c(CC(=O)O)s2)cn1 [Preparation Example 586] |  | ≤ 500 nM | B (A≧20>B≧10>C (minute))
CCNC(=O)Cc1nc(-c2ccc(F)cc2)oc1-c1ccsc1 [Preparation Example 616] |  | 1000 to 3000 nM | B (A≧20>B≧10>C (minute))
COc1ccc(-c2nc(CC(=O)O)c(-c3ccc(F)c(F)c3)o2)cc1 [Preparation Example 246] |  | 500 to 1000 nM | B (A≧20>B≧10>C (minute))
CN(C)c1ccc(-c2nc(-c3ccsc3)c(CC(=O)O)s2)cn1 [Preparation Example 596] |  | 1000 to 3000 nM | B (A≧20>B≧10>C (minute))

Further lines, with some results ahead:

melting point | EC50 [1] | SMILES | 100% inhibition time range [2]
170 to 172 °C |  | CCCc1nc(-c2ccc(N(C)C)cc2)[nH]c1-c1cccs1 (as salt: HCl) [Preparation example 2] | 
202 to 204 °C |  | CCCc1nc(-c2cccc(Cl)c2)[nH]c1-c1ccccc1 (as salt: HCl) [Preparation example 29] | 
247 to 251 °C |  | CCc1nc(-c2ccc(C)nc2)[nH]c1-c1cncs1 (as salt: HCl) [Preparation example 83] | 
198 to 200 °C |  | C[S+]([O-])Cc1nc(-c2cccc(F)c2)[nH]c1-c1ccccc1 (stereo not shown) (as salt: HCl) [Preparation example 136] | 
215 to 218 °C |  | CCc1nc(-c2ccc(F)cc2)[nH]c1-c1nccs1 (as salt: HCl) [Preparation example 51] | 
267 to 269 °C |  | CCc1nc(-c2ccc(F)cc2)[nH]c1-c1cscn1 (as salt: HCl) [Preparation example 52] | 
234 to 238 °C (dec.) |  | Cl.O=C(O)Cc1nc(-c2ccc(Cl)s2)oc1-c1cccnc1 | 
251 to 255 °C |  | COCc1nc(-c2ccc(C)nc2)[nH]c1-c1cccnc1 (as salt: HCl) [Preparation example 127] | 
205 to 207 °C |  | CCc1nc(-c2csc(Cl)c2)[nH]c1-c1cccnc1 (as salt: HCl) [Preparation example 55] | 
269 to 273 °C |  | Cc1ccc(-c2ncc(-c3cccnc3)[nH]2)cn1 (as salt: HCl) [Preparation example 26] | 
214 to 216 °C |  | CCc1nc(-c2csc(Br)c2)[nH]c1-c1cccnc1 (as salt: HCl) [Preparation example 19] | 
183 to 185 °C |  | CCCc1nc(-c2cncc(C)c2)[nH]c1-c1cccs1 (as salt: HCl) [Preparation example 7] | 
254 to 256 °C |  | CCc1nc(-c2ccc(F)cc2)[nH]c1-c1cncs1 (as salt: HCl) [Preparation example 86] | 
187 to 189 °C |  | CCOC(=O)c1cc(-c2nc(CC)c(-c3cccnc3)[nH]2)cs1 [Preparation example 11] | 
192 to 195 °C |  | Fc1ccc(-c2ncc(-c3cccnc3)[nH]2)cc1 (as salt: HCl) [Preparation example 22] | 
 | 1000 to 3000 nM | CCc1nc(-c2ccc(F)cc2)[nH]c1-c1ncccn1 [Preparation example 50] | C (A≧20>B≧10>C (minute))
 | 1000 to 3000 nM | Cc1nc(-c2csc(Cl)c2)[nH]c1-c1cccnc1 [Preparation example 54] | B (A≧20>B≧10>C (minute))
 | 1000 to 3000 nM | CCc1nc(-c2csc(Cl)c2)[nH]c1-c1cccnc1 [Preparation example 55] | B (A≧20>B≧10>C (minute))
